Results: patent US9162992B2, “Compounds and compositions for treatment of breathing control disorders or diseases” (GALLEON PHARMACEUTICALS, INC., priority 2010, dated 2015)

Tests used:
[1] = Stability as a function of buffer strength (1 mg/mL, citrate pH 3.0); type: physicochemical; set-up: Assay: unit not given here; settings: for Impurities: unit assumed
Experimental: A 10 mg/mL (XXXVI) solution in 100 mM citrate buffer at pH 3.0 and a 500 mM citrate buffer at pH 3.0 were prepared. Using these two stock solutions, (XXXVI) solutions at 1 mg/mL were prepared in citrate buffers of various concentrations in the range 10-250 mM, as shown in Table 12E.
Each of the above solutions was stored in 5 mL serum vials as ca. 2.5-3 mL aliquots (total of 7 aliquots). Two aliquots were stored at each of 40° C., 60° C. and 25° C. Aliquots stored at 25° C. served as controls to be evaluated if necessary. […]

[2] = test system: hypercapnic ventilatory response; experiment: Hypercapnic ventilatory response (HCVR, 3% CO2), rat plethysmography; type: in vivo; settings: for hypercapnia ventilatory response (HCVR): 3% CO2
Experimental: A 1.5 mg/mL stock was created to give an infusion dose of 0.10 mg/kg/min. A separate 0.45 mg/mL stock was created to give an infusion dose of 0.03 mg/kg/min. All compound solutions and vehicles were titrated to have a pH between 4-8, using a pH paper and titrating with NaOH or HCl solution.
Male Sprague-Dawley rats (Harlan, Inc.), 250-350 g at time of dosing, had been surgically prepared by Harlan to contain jugular vein cannulas. A 12 chamber plethysmography system with temperature/humidity compensation (Epstein et al., 1980, J. Apply Physiol. 49:1107-1115) from Buxco, Inc. (PLY 3223; Buxco, Inc, Wilmington, N.C., USA) using Biosystem XA software, v2.11.1 and a customized 12 site automated infusion system (Harvard Apparatus, Instech, Inc). Gas mixer (CWE Inc.) was used for this experiment to give concentrations of hypercapnia (3% CO2, 21% O2, balance nitrogen). Three tanks containing 100% O2, CO2, and nitrogen were attached to the gas mixer, with the customized gas mixture fed to each plethysmograph at a rate of 2 L/min.
Rat whole body plethysmography was used to evaluate and quantify minute ventilation and the pattern of breathing. A respiratory waveform was generated from the exchange of air between the animal and the chamber. This exchange induced changes in air volume that were measured with a pressure transducer, constituting the respiratory waveform (Lomask M., 2005, “Respiration measurement in the whole body plethysmography,” Buxco Inc., retrieved from http://www dot buxco dot com/downloads/LomaskWBP dot pdf). Atmospheric temperature and humidity were also measured using temperature and humidity probes that sampled chamber conditions. A compensation factor was then determined and applied to the respiratory waveform using a standardized algorithm (Epstein et al., 1980, J. Apply Physiol. 49:1107-1115) to compensate for respiratory conditioning, which was reported as the parameter COMP.
All animals were acclimated to plethysmography chambers for at least 1 hour, or until animals were no longer restless (up to 2 hours prior to data collection). Minute ventilation (MV) was calculated by the Biosystem XA software from direct measurements of tidal volume (TV) and respiratory frequency (f) using the formula MV=TV×f. Minute ventilation (mL/min) is a common endpoint for evaluating ventilatory performance. The protocol included compound (XXXVI) given as a 20 minute infusion, followed by a 20 minute exposure to 3% hypercapnia in addition to the compound (XXXVI) infusion. After 20 minutes of hypercapnia, the compound (XXXVI) infusion continued for an additional 10 minutes, resulting in a total compound (XXXVI) infusion time of 50 minutes. Each experiment included 6 animals receiving compound (XXXVI) (0.03 or 0.10 mg/kg/min) tested against 6 animals receiving vehicle, all of which were challenged with hypercapnia (3%). Animals were continuously monitored and observed for adverse behavioral effects. Such findings were recorded into laboratory notebooks for each individual animal tested.
Respiratory data was collected on a breath-by-breath basis and averaged into 1 min time bins for data analysis. […] Each parameter was compared to vehicle in order to calculate percent difference, using area under the curve (AUC) and peak response values for each defined acquisition period using a customized visual basic restructure analysis macro (Lopotosky, S. Galleon Buxco Restructure tool, v5.2, 2008). All of the data analysis for the single, stand-alone studies was done using the restructure analysis macro (Lopotosky, S. Galleon Buxco Restructure tool, v5.2, 2008). All merged data analysis with both doses was performed in Graphpad Prism for MV, TV, and f only, for hypercapnia studies. Additionally, percent increase was calculated based on the cohort average immediately prior to the hypercapnic challenge to the group's peak response. For merged hypercapnia studies, t=62 to t=67 was used.

CCCNc1nc(NCCC)nc(N(C)OC)n1 [XXXV, N-(4,6-Bis-n-propylamino-[1,3,5]triazin-2-yl)-N,O-dimethyl-hydroxylamine]
Assay ([1]; 10 mM, 40° C. 1 wk): 0.953
pH ([1]; 10 mM, 40° C. 1 wk): 3.26
Assay ([1]; 10 mM, 40° C. 2 wk): 0.947
pH ([1]; 10 mM, 40° C. 2 wk): 3.21
Assay ([1]; 10 mM, 60° C. 1 wk): 0.953
pH ([1]; 10 mM, 60° C. 1 wk): 3.3
Impurities ([1]; 10 mM, 60° C. 1 wk): 0.48%
Assay ([1]; 10 mM, 60° C. 2 wk): 0.956
pH ([1]; 10 mM, 60° C. 2 wk): 3.2
Impurities ([1]; 10 mM, 60° C. 2 wk): 0.89%
Assay ([1]; 10 mM, initial): 0.971
pH ([1]; 10 mM, initial): 3.16
Assay ([1]; 20 mM, 40° C. 1 wk): 0.965
pH ([1]; 20 mM, 40° C. 1 wk): 3.33
Impurities ([1]; 20 mM, 40° C. 1 wk): 0.13%
Assay ([1]; 20 mM, 40° C. 2 wk): 0.966
pH ([1]; 20 mM, 40° C. 2 wk): 3.30
Assay ([1]; 20 mM, 60° C. 1 wk): 0.943
pH ([1]; 20 mM, 60° C. 1 wk): 3.3
Impurities ([1]; 20 mM, 60° C. 1 wk): 0.58%
Assay ([1]; 20 mM, 60° C. 2 wk): 0.947
pH ([1]; 20 mM, 60° C. 2 wk): 3.3
Impurities ([1]; 20 mM, 60° C. 2 wk): 0.88%
Assay ([1]; 20 mM, initial): 1.01
pH ([1]; 20 mM, initial): 3.27
Assay ([1]; 50 mM, 40° C. 1 wk): 0.959
pH ([1]; 50 mM, 40° C. 1 wk): 3.34
Assay ([1]; 50 mM, 40° C. 2 wk): 0.949
pH ([1]; 50 mM, 40° C. 2 wk): 3.29
Assay ([1]; 50 mM, 60° C. 1 wk): 0.936
pH ([1]; 50 mM, 60° C. 1 wk): 3.3
Impurities ([1]; 50 mM, 60° C. 1 wk): 0.59%
Assay ([1]; 50 mM, 60° C. 2 wk): 0.943
pH ([1]; 50 mM, 60° C. 2 wk): 3.3
Impurities ([1]; 50 mM, 60° C. 2 wk): 0.87%
Assay ([1]; 50 mM, initial): 0.976
pH ([1]; 50 mM, initial): 3.28
Assay ([1]; 100 mM, 40° C. 1 wk): 0.964
pH ([1]; 100 mM, 40° C. 1 wk): 3.32
Impurities ([1]; 100 mM, 40° C. 1 wk): 0.26%
Assay ([1]; 100 mM, 40° C. 2 wk): 0.956
pH ([1]; 100 mM, 40° C. 2 wk): 3.29
Impurities ([1]; 100 mM, 40° C. 2 wk): 0.38%
Assay ([1]; 100 mM, 60° C. 1 wk): 0.962
pH ([1]; 100 mM, 60° C. 1 wk): 3.3
Impurities ([1]; 100 mM, 60° C. 1 wk): 0.73%
Assay ([1]; 100 mM, 60° C. 2 wk): 0.946
pH ([1]; 100 mM, 60° C. 2 wk): 3.2
Impurities ([1]; 100 mM, 60° C. 2 wk): 1.2%
Assay ([1]; 100 mM, initial): 0.962
pH ([1]; 100 mM, initial): 3.30
Assay ([1]; 250 mM, 40° C. 1 wk): 0.972
pH ([1]; 250 mM, 40° C. 1 wk): 3.25
Impurities ([1]; 250 mM, 40° C. 1 wk): 0.21%
Assay ([1]; 250 mM, 40° C. 2 wk): 0.945
pH ([1]; 250 mM, 40° C. 2 wk): 3.22
Impurities ([1]; 250 mM, 40° C. 2 wk): 0.56%
Assay ([1]; 250 mM, 60° C. 1 wk): 0.955
pH ([1]; 250 mM, 60° C. 1 wk): 3.2
Impurities ([1]; 250 mM, 60° C. 1 wk): 1.03%
Assay ([1]; 250 mM, 60° C. 2 wk): 0.936
pH ([1]; 250 mM, 60° C. 2 wk): 3.2
Impurities ([1]; 250 mM, 60° C. 2 wk): 1.8%
Assay ([1]; 250 mM, initial): 0.947
pH ([1]; 250 mM, initial): 3.21
effect of buffer strength on impurity levels ([1]; 40° C., buffer concentration relevant to the formulation (ca. 10-50 mM)): no effect of buffer strength at 40 °C

CCCNc1nc(NCCC)nc(N(C)OC)n1.O=S(=O)(O)O [XXXVI, N-(4,6-Bis-n-propylamino-[1,3,5]triazin-2-yl)-N,O-dimethyl-hydroxylamine hydrogen sulfate]
facilitation of the HCVR ([2]; 0.03 mg/kg/min (same as vehicle group), t=62 to t=67): 60%
respiration in naive animals ([2]; 0.03 mg/kg/min IV infusion): little or no effect
hypercapnia ventilatory response (HCVR) ([2]; 0.03 mg/kg/min): no effect
respiration in naive animals ([2]; 0.10 mg/kg/min IV infusion): stimulated respiration in naive animals
hypercapnia ventilatory response (HCVR) ([2]; 0.10 mg/kg/min): augmentation of the hypercapnia ventilatory response (HCVR)
increase in MV during the HCVR challenge ([2]; 0.10 mg/kg/min, t=62 to t=67, on top of elevated MV due to compound alone): 44%
adverse clinical observations ([2]; rats, doses tested): no adverse clinical observations
